Source: patent publication US20070117180A1, “Enzyme producing plasma protein fragment having inhibitory activity to metastasis and growth of cancer and plasma protein fragment produced by fragmentation by said enzyme” (priority 1998, published 2007)

How the values were obtained:
Lewis lung cancer cells = assay: Inhibitory activity of PACE4 to growth of metastasized cancerous focus in immunodeficient mice (lung weight, FIG. 9); format: in vivo, immunodeficient (Scid) mice
Description: As a system for estimating inhibitory effects to growth of metastasized cancerous focus of PACE4 per se, immunodeficient (Scid) mice were employed. Lung cancer cells (3LL; provided from Cell Resource Center for Biomedical Research, Institute of Development, Aging and Cancer, Tohoku University) were subcutaneously transplanted to Scid mice at the back. The animals were bred until a primary cancerous focus grows up to a predetermined size. So that severity of disease conditions is taken into consideration, mice were divided into two groups based on the size of a primary cancerous focus; one with a primary cancerous focus weighing not more than 1200 mg and the other with a primary cancerous focus weighing more than 1200 mg. The primary cancerous focus in each group was removed surgically. Each group was then further divided into three groups: a group receiving a high or low concentration of PACE4, and a control group. The sample was administered to mice intraperitoneally at 40 μg/mouse/day or 8 μg/mouse/day for 10 days. As a control, the same amount of physiological saline, as used for dissolving the lyophilized sample, was administered to mice.
After completion of test, mice were dissected and the lung was weighed and compared with the control group (Mann Whetney U test).
To immunodeficient mice of 6 weeks old were transplanted subcutaneously 10^6 Lewis lung cancer cells (LL/2) at the back. The animals were bred for 14 to 17 days and cancer (primary cancerous focus) formed at the back was surgically removed. Based on size of the primary cancerous focus formed, the animals were divided into two groups: one with the primary cancerous focus of not more than 1200 mg (200 mg to 1200 mg) and the other of more than 1200 mg (1201 mg to 2500 mg). Each of these two groups was further divided into three groups: ones that received a high or low dose of the enzyme of the present invention (PACE4) and control. […]

plasminogen = assay: Fragmentation of plasminogen by purified PACE4 at pH 7.0 or pH 4.0 (FIG. 6); format: biochemical, human; conditions: reacted at neutral and acidic ranges of pH
Protocol: FIG. 6 depicts fragmentation patterns of plasminogen when reacted at neutral and acidic ranges of pH. […] In FIG. 6, the arrow A (→A) indicates a band corresponding to angiostatin from PC-3 according to Gately et al. whereas the arrow B (→B) indicates a band corresponding to a fragment comprising Kringles 1 to 4 produced by PACE4. […] The N-terminal amino acid residue of each fragment was analyzed to be F-74 for A, P-452 for B and A-700 for C, respectively.

plasmin = assay: Remaining plasmin activity after cleavage by PACE4 (FIG. 8); format: biochemical; conditions: with passage of time of cleavage by PACE4
Description: Moreover, the enzyme of the present invention, producing angiostatin that comprises Kringles 1 to 4, also cleaves plasmin in the vicinity of its active center (between the 699th Phe and 700th Ala) to let plasmin be inactivated. This cleaving property of the enzyme is quite significant in view of efficient protection against cancer development. This is because angiostatin that inhibits growth of cancer is produced by fragmentation of plasminogen while the simultaneously produced active center of plasmin (plasmin serine protease domain) possibly further promotes cancer development. In addition, it is possible that vascularization and cancer invasion accelerated by the plasmin activity is further accelerated by removal of the Kringle domains. This is because such removal of the Kringle domains would attenuate the inhibitory activity of plasmin-inhibitory proteins occurring within the living body, including alpha 2 plasmin inhibitor (hereinafter referred to as “α2-PI”). Plasmin present in plasma is immediately inactivated by α2-PI circulating in the blood stream wherein the Kringle domains serve as a binding site between plasmin and α2-PI. Deprivation of the domains much reduces the activity of […]. […]

[1] = tested on: vascular endothelial cells; assay: Inhibitory activity to growth of the vascular endothelial cells of plasma protein fragments produced by PACE4; format: cell-based; conditions: as described in Example 13
Description: (§1) The present inventors focused on fibronectin, a plasma component that is produced in great deal under cancerous conditions and is deeply involved in cell adhesion, and cleaved this with the enzyme of the present invention. […] The degraded products produced by the enzyme from fibronectin were separated with heparin Sepharose (Pharmacia). […] The obtained degraded products were estimated for their inhibitory activity to vascularization in the vascular endothelial cell system as described above.
Moreover, the present inventors also cleaved several kinds of fractions obtained from alcoholic fractionation of plasma proteins with the enzyme of the present invention. Alcohol was removed from alcoholic fractions by dialysis, followed by dialysis with citric phosphate buffer (pH 4.0). The resulting fractions were mixed with the enzyme at a ratio of the protein to the enzyme, 100:1, and the mixture was reacted at 38° C. overnight. […]
A test for inhibitory activity to growth of vascular endothelial cells was performed as described by Gately et al. using Human Umbilical vein endothelial (HUV) cells (HUVEC; Sanko Jun-yaku K.K.). […] The cells were peeled off the well with trypsin/EDTA solution and counted with Coulter counter (manufactured by Coulter). […]

[2] = tested on: BCE (Bovine capillary endothelial); assay: Inhibition of BCE vascular growth by fibronectin degraded products; format: cell-based
Description: as §1

[3] = tested on: bovine aorta endothelial (BAE) cells; assay: Test for inhibitory activity to growth of vascular endothelial cells, bovine aorta endothelial cells; format: cell-based; set-up: dose or concentration left out as unconfirmed; conditions: cell count after 72 hours; plasminogen fragments
Protocol: The activity of the plasminogen fragments was also estimated as described by O'Reilly et al. using bovine aorta endothelial (BAE) cells purchased from Sanko Jun-yaku K.K. BAE cells were cultured for maintenance on a 24-well plate (manufactured by Iwaki Glass K.K.) coated with gelatin in a DMEM basal medium containing 10% fetal calf serum (FCS), 3 ng/ml basic FGF (bFGF), 1% glutamine, 1% penicillin and 1% streptomycin at 5% CO2. BAE cells were plated on a 24-well gelatin-coated plate at 12,500 cells/well and cultured on the basal medium deprived of bFGF for 24 hours. […] contained 5% FCS but was deprived of bFGF and the plasminogen fragments were reacted with the cells at 37° C. for 20 minutes. A physiological saline was used as a negative control whereas angiostatin (Angiostatin, manufactured by Technoclone) was used as a positive control. After reaction, the basal medium containing 5% FCS and 2 ng/ml bFGF was added and the cells were cultured at 37° C. for additional 72 hours. The cells were peeled off the well with trypsin/EDTA solution and counted with Coulter counter (manufactured by Coulter).

“PACE4: about 45 kDa aspartic enzyme purified from PC-3 culture supernatant, N-terminus LVRIPLHKFT, high homology to human cathepsin D precursor” was tested, and the “inhibitory activity to growth of metastasized cancerous focus (lung weight)” value (Lewis lung cancer cells; primary cancerous focus more than 1200 mg (B), 40 or 8 μg/mouse/day i.p. for 10 days, 3LL cells) was “exhibited inhibitory activity to growth of metastasized cancerous focus in a concentration dependent manner”, the “inhibitory activity to increase in lung weight” value (Lewis lung cancer cells; primary cancerous focus more than 1200 mg, 10 or 2 μg/animal i.p. for 10 days, LL/2 cells) was “observed in a dose dependent manner” and the “lung weight, PACE4 administration versus control” value (Lewis lung cancer cells; primary cancerous focus not more than 1200 mg, 10 or 2 μg/animal i.p. for 10 days, LL/2 cells) was “no significant difference”. For the same substance, the “pH range at which plasminogen is fragmented” value (plasminogen) was “only at an acidic range of pH” and the remaining plasmin activity (plasmin) was “plasmin activity disappears”.

fibronectin was tested, and the “growth of the vascular endothelial cells (FIG. 15)” value [1] was “no such inhibitory activity” and the “inhibitory ability to BCE vascular growth” value [2] was “not found”.

angiostatin [reference compound] was tested, and the “inhibitory activity to growth of the vascular endothelial cells” value [3] was “exhibited the inhibitory activity”.
